Reference: US20240271104A1, “COLONIZATION OF SURFACES WITH BIOLOGICAL CELLS” (Eberhard Karls Universität Tübingen Medizinische Fakultät, priority 2021, published 2024)

Assays:
Type in all cases: cell-based, human
HUVECs [1] = assay: PrestoBlue cell viability assay after metabolic labeling; conditions: 50 μM Ac4ManNAz 48 h
Experimental: The influence of metabolic labeling on the viability of HUVECs was investigated 48 hours after labeling with 50 µM Ac4ManNAz using the PrestoBlue assay (Invitrogen, Carlsbad, USA). For this purpose, 500 μL of 1× Presto Blue cell viability reagent was added to each well of a 6-well plate and incubated for 1.5 h at 37° C. The fluorescence intensity of 100 μL supernatant was measured in triplicate at an excitation wavelength of 530 nm and an emission wavelength of 600 nm using a multimode microplate reader (Mithras LB 940, Berthold Technologies, Bad Wildbad, Germany).

HUVECs [2] = assay: Metabolic labeling of HUVECs with azide groups, detection with DBCO-Sulfo-Cy3 by flow cytometry; conditions: 50 μM Ac4ManNAz 48 h, then 5 μM DBCO-Sulfo-Cy3 1 h
Experimental: To functionalize the cell surface of HUVECs with azide groups, 2×10^5 HUVECs per well of a 6-well plate were seeded and treated with or without 50 μM N-azidoacetylmannosamine-tetraacylated (Ac4ManNAz, Sigma Aldrich) in 2 ml medium for 48 h at 37° C. with 5% CO2. To detect the formed azido groups, the cells were washed with DPBS without Ca^2+/Mg^2+ and incubated with 5 μM DBCO-Sulfo-Cy3 (Jena Bioscience, Germany) in DPBS with Ca^2+/Mg^2+ for 1 h at 37° C. and 5% CO2. Cells were washed three times with 10 ml DPBS, detached with trypsin/EDTA (0.04%/0.03%) and centrifuged at 300×g for 5 min. The cell pellet was resuspended in 0.5 ml DPBS, and Cy3 labeling of 10,000 cells was analyzed by flow cytometry (FACS SCAN, BD, Heidelberg, Germany). In addition to the flow cytometric analyses, cells were stained for 30 minutes with ActinGreen™ 488 ReadyP-robes® reagent (Invitrogen) for the cytoskeleton and for 5 minutes with 0.2 μg/ml DAPI (Sigma Aldrich) to visualize the nuclei.

[3] = system: endothelial layer on HFMs; assay: Reactivity of the endothelial layer on HFMs to an inflammatory stimulus (qRT-PCR of adhesion molecules); conditions: 50 ng/mL TNF-α, 4 hours, mRNA normalized to GAPDH
Experimental: Endothelialized HFMs were incubated for 4 hours without or with 50 ng/mL tumor necrosis factor α (TNF-α, Sigma-Aldrich) in EGM™-2 endothelial cell growth medium without hydrocortisone. After incubation, HFMs were washed twice with DPBS and total RNA was isolated. Expression of the activation markers, endothelial leukocyte adhesion molecule 1 (E-selectin), vascular cell adhesion molecule 1 (VCAM-1) and intercellular adhesion molecule 1 (ICAM-1), was detected by qRT-PCR.
After 40 cycles, melting was performed.

Molecule | effect on viability of HUVECs (HUVECs [1]) | Cy3-positive cells (N3 groups on the cell surface) (HUVECs [2]) | E-selectin expression compared to non-stimulated endothelial layer [3] | ICAM-1 expression compared to non-stimulated endothelial layer [3] | VCAM-1 expression compared to non-stimulated endothelial layer [3]
CC(=O)OC[C@H]1OC(OC(C)=O)[C@@H](NC(=O)CN=[N+]=[N-])[C@@H](OC(C)=O)[C@@H]1OC(C)=O (some centres unmarked) [Ac4ManNAz, N-azidoacetylmannosamine-tetraacylated] | no effect | about 98% | – | – | –
tumor necrosis factor α [TNF-α] | – | – | 199 fold | 162 fold | 328 fold
